Consider one compound from patent US8227240B2, “Systems for screening pharmaceutical chemicals” (The Washington University, priority 2001, dated 2012).

The test system of test [1] is reconstituted tissue membrane (fibroblast non-muscle myosin / actin cytoskeleton). In words: Tissue indentation method in 96-well plate: peak force of reconstituted tissue membrane. It counts as cell-based. As for the experimental part:
A triangular frame made of stainless steel wire 1 mm in diameter was employed as a scaffold on which the reconstituted tissue formed. The wells are slightly tapered toward the bottom and the frame is securely positioned 1 mm above the bottom of the well (FIG. 11a). The non-polymerized solution of collagen containing cells and appropriate cell culture media as described above was poured into the wells filling the wells to a level 3 mm above the bottom (FIG. 11b). The 96-well plate was incubated at 37° C. with 5% CO2. During the incubation, cells compressed collagen matrices by squeezing liquid out from the porous collagen matrix. Without the wire frame, the reconstituted tissue contracted into a small sphere floating in the tissue culture medium. It was discovered that by utilizing different shapes of wire frames the collagen matrix was compressed into shapes corresponding to shapes of the frames. Other wire frame shapes, such as one shown in FIG. 11b, produced tissue strips with different widths. A porous support material such as a Velcro fastener was not required to facilitate tissue adhesion even to the non-porous stainless steel surfaces of a wire. The collagen was compressed to a greater extent at the outer portion of the membrane or strip. Therefore, this outer portion of the membrane can withstand stress produced by the cells and prevented it from ripping the membrane off the wire frame.
To assess the response of the tissue model samples to test agents, the resistance of the tissue samples to stretch is measured by a probe coupled to a force transducer. The stiffness of the tissue is related to the force required to move the probe by a specified amount once the probe contacts the tissue. […]
The stage is raised until the probe tip touches the membrane or strip of reconstituted tissue. Contact of the tip with the sample is detected by a sudden increase in the force registered by the isometric force transducer. […] During this trajectory the tip comes in contact with the tissue specimen and stretches it as the force is continually recorded by a data recorder. […]

Test [2] deals with actin cytoskeletons in mono-layer cell cultures. In words: Confocal microscopy of actin cytoskeletons stained with Rhodamine phalloidin. It counts as cell-based. Particulars: CD 2 nM.

As to `C=C1[C@@H](C)[C@H]2[C@H](Cc3ccccc3)NC(=O)[C@]23[C@H](OC(C)=O)/C=C/[C@@](C)(O)C(=O)[C@@H](C)C/C=C/[C@H]3[C@@H]1O` [CD, cytochalasin D], the “decrease of peak force from its initial level” value in test [1] (40 nM CD, nearly 15 min after addition, after 20% FBS) is “about 40%”. Further, the peak force result in test [1] (2 μM CD, 20 min after addition) is “further reduction”. Further, the “reduction of the height of the force peaks” value in test [1] (96-well plate, after 10% FBS) came out at 60%. The “effect on actin cytoskeletons by confocal microscopy” value in test [2] is recorded as “no effect was observed”.
